Experimental findings from patent US9255257B2, “PmST1 mutants for chemoenzymatic synthesis of sialyl lewis X compounds” (THE REGENTS OF THE UNIVERSITY OF CALIFORNIA, priority 2011, dated 2016) are described below.

The structures appear in SMILES notation.

A word on the kcat: it is the number of substrate molecules converted per active site and unit of time at saturation.

Format in all cases: biochemical
Assay [1] concerns the target T1, Pasteurella multocida PmST1 mutant M144D of SEQ ID NO: 13 (M120D of Δ24PmST1, SEQ ID NO: 3) (Pasteurella multocida, UniProt Q15KI8, M144D). Briefly: α2-3-sialyltransferase activity, LacβMU as acceptor. The following applies: apparent, donor, LacβMU 1 mM, Tris-HCl pH 8.5, 37° C. The protocol: (§1) Site-directed mutagenesis, expression and purification of PmST1 mutants. Site-directed mutagenesis was performed using the QuikChange multi-site-directed mutagenesis kit from Stratagene according to the manufacturer's protocol. The primers used were 5′-[…]-3′ (SEQ ID NO:35) for M144D; 5′-[…]a[…] -3′ (SEQ ID NO:36) for M144H; 5′-[…]-3′ (SEQ ID NO:37) for A35D; and 5′-[…]-3′ (SEQ ID NO:38) for A35H. The expression and purification of the mutants were performed as previously described for the WT PmST1 .
(§2) Kinetics of the α2-3-sialyltransferase activity of PmST1 mutants by HPLC analysis. With LacβMU as the acceptor substrate, the reactions were performed in duplicate at 37° C. for 10 min (M144D) or 4 min (M144H) in a reaction mixture (10 μL) containing Tris-HCl (100 mM, pH 8.5), an enzyme (5 μg mL^−1), and different concentrations (0.2, 0.5, 1.0, 2.0, and 5.0 mM) of LacβMU with a fixed concentration (1 mM) of CMP-Neu5Ac or different concentrations (0.2, 0.5, 1.0, 2.0, 5.0, and 10.0 mM) of CMP-Neu5Ac with a fixed concentration (1 mM) of LacβMU. With Le^xβMU as the acceptor substrate, the reactions were carried out in duplicate at 37° C. for 9 min (M144D) or 10 min (M144H) in a reaction mixture (10 μL) containing CAPSO (100 mM, pH 9.5), an enzyme (M144D, 39 μg mL^−1 or M144H, 5 μg mL^−), and various concentrations of Le^xβMU (1.0, 5.0, 10.0, 15.0, 25.0, and 35.0 mM) with a fixed concentration (1 mM) of CMP-Neu5Ac or various concentrations (0.2, 0.5, 1.0, 2.0, 5.0, 10.0, 20.0, and 40.0 mM) of CMP-Neu5Ac with a fixed concentration (1 mM) of Le^xβMU. Reactions were stopped by adding 10 μL of pre-chilled ethanol. The mixtures were incubated on ice for 30 min and centrifuged at 13,000 rpm for 5 min. The supernatants were diluted with 25% acetonitrile and kept on ice until aliquots of 8 μL were injected and analyzed by the Shimadzu LC-6AD system equipped with a membrane on-line degasser, a temperature control unit, and a fluorescence detector (Shimadzu RF-10AXL). A reverse-phase Premier C18 column (250×4.6 mm i.d., 5 μm particle size, Shimadzu) protected with a C18 guard column cartridge was used. The mobile phase was 25% acetonitrile. The fluorophore (MU)-labeled compounds were detected by excitation at 325 nm and emission at 372 nm. The apparent kinetic parameters were obtained by fitting the experimental data (the average values of duplicate assay results) into the Michaelis-Menten equation using Grafit 5.0.

The target in assay [2] is T2, Pasteurella multocida PmST1 mutant M144H of SEQ ID NO: 13 (M120H of Δ24PmST1, SEQ ID NO: 5) (Pasteurella multocida, UniProt Q15KI8, M144H). Described as above. The note with it: apparent, donor, LacβMU 1 mM, Tris-HCl pH 8.5, 37° C. How it is done: as §1, §2
Assay [3] deals with T1, Pasteurella multocida PmST1 mutant M144D of SEQ ID NO: 13 (M120D of Δ24PmST1, SEQ ID NO: 3). As to the kind of experiment: α2-3-sialyltransferase activity, Le^xβMU as acceptor. The note with it: apparent, donor, Le^xβMU 1 mM, CAPSO pH 9.5, 37° C. The protocol: as §1, §2
For assay [4], the target named is T2, Pasteurella multocida PmST1 mutant M144H of SEQ ID NO: 13 (M120H of Δ24PmST1, SEQ ID NO: 5). The assay is described as above. The following applies: apparent, donor, Le^xβMU 1 mM, CAPSO pH 9.5, 37° C. The protocol:
as §1, §2

In assay [5] the target is T1, Pasteurella multocida PmST1 mutant M144D of SEQ ID NO: 13 (M120D of Δ24PmST1, SEQ ID NO: 3). As to the kind of experiment: CMP-Neu5Ac (donor) hydrolysis activity, capillary electrophoresis. The following applies: apparent, Tris-HCl pH 8.5, 37° C., 15 min. The protocol:
as §1
(§3) Kinetics of the donor hydrolysis activity of PmST1 and mutants by capillary electrophoresis analysis. […] The reactions were stopped by adding 10 μL of pre-chilled ethanol. The mixtures were incubated on ice for 30 min and centrifuged at 13,000 rpm for 5 min. The supernatants were diluted with borate buffer (25 mM, pH 9.5) and aliquotes of 5 μL each were injected to a Beckman Coulter P/ACE™ MDQ Capillary Electrophoresis system equipped with a capillary (60 cm×75 μm i.d.) and monitored at 254 nm. The apparent kinetic parameters were obtained by fitting the experimental data (the average values of duplicate assay results) into the Michaelis-Menten equation using Grafit 5.0.

Assay [6] concerns the target T2, Pasteurella multocida PmST1 mutant M144H of SEQ ID NO: 13 (M120H of Δ24PmST1, SEQ ID NO: 5). The description is as above. The note with it: apparent, Tris-HCl pH 8.5, 37° C., 15 min. How it is done: as §1, §3

Take `CC(=O)N[C@H]1[C@H]([C@H](O)[C@H](O)CO)O[C@](OP(=O)(O)OC[C@H]2O[C@@H](n3ccc(N)nc3=O)[C@H](O)[C@@H]2O)(C(=O)O)C[C@@H]1O` [CMP-Neu5Ac]: the “kcat (CMP-Neu5Ac)” value in assay [1] turned out to be 1.9 ± 0.1 s⁻¹; in assay [2], 21 ± 1 s⁻¹; in assay [3], 0.59 ± 0.01 s⁻¹; in assay [4], 0.93 ± 0.02 s⁻¹. In addition, the kcat in assay [5] was found to be 6.5 ± 0.1 s⁻¹; in assay [6] it was 71 ± 6 s⁻¹.
